From ChEMBL document CHEMBL1201862, “PubChem BioAssay data set” (2004)
Calls of active or inactive are those of the source.

How the values were obtained:
HEK293 = assay: inhibitors of LMP1-driven NF-kB reporter, dose response, cell-based, HEK293, luciferase, cherry-pick (AID 588343); assay type: functional; conditions: Homo sapiens
[1] = biological target: Latent membrane protein 1 (Human herpesvirus 4 (strain B95-8), UniProt P03230); assay: TES1-eGFP NF-kB reporter inhibition versus Tet-On dsRED, dose response, selectivity assay for LMP1 NF-kB inhibitor project, imaging, HEK293T, dual-color eGFP/dsRED, cherry-picks (AID 588398); assay type: functional, cell-based
[2] = biological target: Transitional endoplasmic reticulum ATPase (Homo sapiens, UniProt P55072, C522A); assay: C522A mutant p97 ATPase inhibitors, dose response, counter-screen for p97 inhibitor project, biochemical, luminescence (AID 1544)
Sequence of Transitional endoplasmic reticulum ATPase (Homo sapiens, UniProt P55072, C522A) (P55072 2-806 C522A limits assumed): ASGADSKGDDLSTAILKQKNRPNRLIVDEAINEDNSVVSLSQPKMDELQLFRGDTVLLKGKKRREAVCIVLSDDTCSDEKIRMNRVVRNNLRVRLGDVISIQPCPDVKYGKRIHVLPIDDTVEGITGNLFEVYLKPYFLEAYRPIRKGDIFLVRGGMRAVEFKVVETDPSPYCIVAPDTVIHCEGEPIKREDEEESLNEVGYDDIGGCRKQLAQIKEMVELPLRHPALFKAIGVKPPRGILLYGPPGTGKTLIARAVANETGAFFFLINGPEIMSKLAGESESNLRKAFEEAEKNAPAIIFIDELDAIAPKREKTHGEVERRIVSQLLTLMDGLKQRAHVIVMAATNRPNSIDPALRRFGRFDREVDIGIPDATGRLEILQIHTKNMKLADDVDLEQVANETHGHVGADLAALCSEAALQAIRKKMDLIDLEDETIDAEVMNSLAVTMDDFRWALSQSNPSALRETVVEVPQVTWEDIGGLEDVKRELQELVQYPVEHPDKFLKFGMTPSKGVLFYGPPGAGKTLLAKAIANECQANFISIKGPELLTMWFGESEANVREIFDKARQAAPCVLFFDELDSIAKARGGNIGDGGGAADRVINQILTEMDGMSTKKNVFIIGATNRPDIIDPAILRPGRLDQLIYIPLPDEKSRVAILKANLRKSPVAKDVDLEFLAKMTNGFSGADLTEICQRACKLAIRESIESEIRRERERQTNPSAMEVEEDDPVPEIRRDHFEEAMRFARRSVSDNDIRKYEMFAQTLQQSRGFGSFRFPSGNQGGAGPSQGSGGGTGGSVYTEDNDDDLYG

[3] = biological target: Transitional endoplasmic reticulum ATPase (Homo sapiens, UniProt P55072); assay: p97 ATPase inhibitors, dose response, biochemical (AID 1534)
[4] = biological target: Induced myeloid leukemia cell differentiation protein Mcl-1 (Homo sapiens, UniProt Q07820); assay type: functional
Sequence of Induced myeloid leukemia cell differentiation protein Mcl-1 (Q07820 whole entry): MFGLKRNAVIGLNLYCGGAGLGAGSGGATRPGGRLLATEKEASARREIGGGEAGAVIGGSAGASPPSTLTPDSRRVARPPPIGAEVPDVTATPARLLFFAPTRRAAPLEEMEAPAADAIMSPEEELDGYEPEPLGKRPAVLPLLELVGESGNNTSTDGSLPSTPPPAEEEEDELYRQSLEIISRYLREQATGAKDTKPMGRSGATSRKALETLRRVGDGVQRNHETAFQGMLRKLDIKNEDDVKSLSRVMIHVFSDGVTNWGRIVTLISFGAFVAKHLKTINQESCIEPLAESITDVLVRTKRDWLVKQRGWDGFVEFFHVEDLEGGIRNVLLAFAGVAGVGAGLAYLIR

[5] = biological target: Glucose-6-phosphate 1-dehydrogenase (Homo sapiens, UniProt P11413); assay: human G6PD enzyme inhibitors, dose response, selectivity assay for P. falciparum G6PD inhibitor project, biochemical, fluorescence (AID 504792); assay type: functional
Sequence of Glucose-6-phosphate 1-dehydrogenase (P11413 whole entry): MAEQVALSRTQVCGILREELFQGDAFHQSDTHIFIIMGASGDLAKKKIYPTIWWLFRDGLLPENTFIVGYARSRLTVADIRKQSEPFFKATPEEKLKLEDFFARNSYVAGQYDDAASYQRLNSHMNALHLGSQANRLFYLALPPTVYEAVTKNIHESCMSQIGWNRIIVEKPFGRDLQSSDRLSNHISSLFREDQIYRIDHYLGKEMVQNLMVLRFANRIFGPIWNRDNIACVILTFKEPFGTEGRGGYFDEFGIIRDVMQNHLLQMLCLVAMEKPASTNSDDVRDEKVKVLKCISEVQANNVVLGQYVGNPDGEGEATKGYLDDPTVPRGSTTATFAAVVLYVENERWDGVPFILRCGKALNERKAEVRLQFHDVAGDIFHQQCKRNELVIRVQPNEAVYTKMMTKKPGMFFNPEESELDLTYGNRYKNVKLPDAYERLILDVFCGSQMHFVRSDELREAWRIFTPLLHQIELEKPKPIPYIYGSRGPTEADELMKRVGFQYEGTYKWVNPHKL

[6] = biological target: T1, Cystic fibrosis transmembrane conductance regulator/Golgi-associated PDZ and coiled-coil motif-containing protein (Homo sapiens, UniProt P13569+Q9HD26); assay: CAL PDZ peptide-binding inhibitors, dose response, biochemical, fluorescence polarization, Cerulean-tagged CAL PDZ, cherry-picks (AID 504773)
T1 sequence (P13569 whole entry, other chains not shown): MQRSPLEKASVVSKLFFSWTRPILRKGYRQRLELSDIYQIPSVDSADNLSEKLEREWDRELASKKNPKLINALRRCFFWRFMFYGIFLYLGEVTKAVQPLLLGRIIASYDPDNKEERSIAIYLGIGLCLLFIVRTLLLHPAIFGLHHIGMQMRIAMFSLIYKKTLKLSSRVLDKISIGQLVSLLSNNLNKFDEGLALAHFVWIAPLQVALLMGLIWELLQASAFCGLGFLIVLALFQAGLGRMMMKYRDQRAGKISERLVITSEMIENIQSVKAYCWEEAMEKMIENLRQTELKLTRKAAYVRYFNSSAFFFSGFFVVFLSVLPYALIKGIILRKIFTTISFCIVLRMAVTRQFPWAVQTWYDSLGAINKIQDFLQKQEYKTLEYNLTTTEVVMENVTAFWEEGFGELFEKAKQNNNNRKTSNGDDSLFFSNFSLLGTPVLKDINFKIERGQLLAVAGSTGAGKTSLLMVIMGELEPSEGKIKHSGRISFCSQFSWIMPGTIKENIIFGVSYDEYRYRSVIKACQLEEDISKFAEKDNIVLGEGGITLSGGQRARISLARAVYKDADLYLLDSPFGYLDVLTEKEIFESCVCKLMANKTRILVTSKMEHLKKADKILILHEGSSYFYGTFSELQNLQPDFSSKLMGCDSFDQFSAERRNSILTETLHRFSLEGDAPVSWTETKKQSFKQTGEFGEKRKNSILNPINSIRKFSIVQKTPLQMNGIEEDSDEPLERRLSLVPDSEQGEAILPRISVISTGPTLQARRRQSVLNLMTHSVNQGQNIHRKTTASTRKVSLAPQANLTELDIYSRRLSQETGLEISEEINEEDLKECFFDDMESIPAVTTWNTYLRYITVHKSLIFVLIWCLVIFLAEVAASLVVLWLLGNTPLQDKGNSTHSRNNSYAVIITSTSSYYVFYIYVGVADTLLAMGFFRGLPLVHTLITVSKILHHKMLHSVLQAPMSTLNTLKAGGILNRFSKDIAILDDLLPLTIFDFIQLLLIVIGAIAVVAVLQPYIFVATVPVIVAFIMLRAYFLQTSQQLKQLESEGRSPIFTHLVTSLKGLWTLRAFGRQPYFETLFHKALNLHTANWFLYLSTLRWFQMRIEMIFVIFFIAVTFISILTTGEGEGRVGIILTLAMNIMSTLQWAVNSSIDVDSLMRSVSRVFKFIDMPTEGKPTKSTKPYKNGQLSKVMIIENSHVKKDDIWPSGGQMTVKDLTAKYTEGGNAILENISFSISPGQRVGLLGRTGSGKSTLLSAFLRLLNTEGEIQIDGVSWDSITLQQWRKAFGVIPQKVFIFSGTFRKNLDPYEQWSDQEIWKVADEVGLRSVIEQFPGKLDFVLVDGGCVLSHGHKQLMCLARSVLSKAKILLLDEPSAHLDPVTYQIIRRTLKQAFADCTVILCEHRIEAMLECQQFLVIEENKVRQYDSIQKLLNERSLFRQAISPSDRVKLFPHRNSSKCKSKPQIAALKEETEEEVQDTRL

Hexokinase HKDC1 = Hexokinase HKDC1 (Homo sapiens, UniProt Q2TB90); assay: HKDC1 hexokinase inhibitors, dose response, biochemical, W721R variant (AID 504729); assay type: functional
Sequence of Hexokinase HKDC1 (Q2TB90 whole entry): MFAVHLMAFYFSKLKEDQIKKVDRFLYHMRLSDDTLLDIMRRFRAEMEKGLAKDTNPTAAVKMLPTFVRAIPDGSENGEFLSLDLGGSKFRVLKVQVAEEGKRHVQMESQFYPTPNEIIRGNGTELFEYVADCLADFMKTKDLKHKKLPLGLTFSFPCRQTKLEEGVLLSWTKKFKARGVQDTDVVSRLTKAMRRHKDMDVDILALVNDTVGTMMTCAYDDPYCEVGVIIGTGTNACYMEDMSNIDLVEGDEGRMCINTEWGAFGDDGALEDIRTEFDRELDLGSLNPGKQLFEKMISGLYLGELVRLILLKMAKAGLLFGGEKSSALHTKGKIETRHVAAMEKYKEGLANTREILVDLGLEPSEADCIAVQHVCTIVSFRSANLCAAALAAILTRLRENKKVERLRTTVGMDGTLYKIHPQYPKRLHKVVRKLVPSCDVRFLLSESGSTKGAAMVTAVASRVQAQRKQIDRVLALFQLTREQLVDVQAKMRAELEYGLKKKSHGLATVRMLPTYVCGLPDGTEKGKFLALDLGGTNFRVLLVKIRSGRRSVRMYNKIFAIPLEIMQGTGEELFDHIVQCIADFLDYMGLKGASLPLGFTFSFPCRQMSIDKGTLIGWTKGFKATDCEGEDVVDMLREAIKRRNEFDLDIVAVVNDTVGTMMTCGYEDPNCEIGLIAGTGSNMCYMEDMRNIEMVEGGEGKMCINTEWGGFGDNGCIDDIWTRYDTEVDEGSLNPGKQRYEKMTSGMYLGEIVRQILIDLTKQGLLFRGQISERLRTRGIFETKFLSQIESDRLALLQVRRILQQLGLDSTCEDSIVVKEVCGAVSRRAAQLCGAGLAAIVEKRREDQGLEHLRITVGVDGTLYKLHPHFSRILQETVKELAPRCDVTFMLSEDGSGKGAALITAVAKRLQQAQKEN

Vero = Vero cell cytotoxicity, cytotoxicity control for flavivirus capping enzyme inhibitors (AID 588742); assay type: functional; conditions: Chlorocebus sabaeus
Genome polyprotein = Genome polyprotein (dengue virus type 2, UniProt P29990); assay: Dengue-2 NS5 methyltransferase inhibitors, primary screen, biochemical, confirmation dose response (AID 588689); assay type: functional
[7] = biological target: T2, Polyadenylate-binding protein 1 (Homo sapiens, UniProt P11940); assay: PABP1 MLLE–PAM2 interaction inhibitors, dose response, miRNA deadenylation inhibitor project, biochemical, fluorescence polarization, Cy5-PAM2 peptide, secondary (AID 602260); assay type: functional; conditions: read-out: IC50_Mean
T2 sequence (P11940 whole entry): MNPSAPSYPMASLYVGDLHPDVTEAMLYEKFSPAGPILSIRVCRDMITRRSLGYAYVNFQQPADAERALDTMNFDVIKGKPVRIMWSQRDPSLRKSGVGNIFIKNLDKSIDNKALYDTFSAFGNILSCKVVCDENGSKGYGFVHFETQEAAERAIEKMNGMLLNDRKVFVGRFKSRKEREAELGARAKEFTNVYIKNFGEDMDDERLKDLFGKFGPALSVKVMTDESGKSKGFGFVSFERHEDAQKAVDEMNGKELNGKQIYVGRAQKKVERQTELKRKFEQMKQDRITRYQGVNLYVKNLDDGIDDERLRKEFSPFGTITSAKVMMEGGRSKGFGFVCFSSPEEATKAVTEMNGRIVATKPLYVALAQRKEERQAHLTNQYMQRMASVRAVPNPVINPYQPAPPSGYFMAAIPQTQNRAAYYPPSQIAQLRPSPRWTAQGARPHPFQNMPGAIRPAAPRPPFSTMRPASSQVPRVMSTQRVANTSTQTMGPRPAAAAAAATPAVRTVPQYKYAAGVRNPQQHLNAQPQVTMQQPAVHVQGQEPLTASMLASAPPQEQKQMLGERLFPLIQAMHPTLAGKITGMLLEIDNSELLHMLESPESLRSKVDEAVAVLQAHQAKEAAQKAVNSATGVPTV

[8] = biological target: T2, Polyadenylate-binding protein 1; assay: PABP1 MLLE–PAM2 binding inhibitor potency, dose response, biochemical, fluorescence polarization, FITC-PAM2 peptide (AID 602259); assay type: functional; conditions: read-out: IC50_Mean
[9] = CAL PDZ domain peptide-binding inhibitors, dose response, biochemical, fluorescence polarization, untagged CAL PDZ, dry powder (AID 602255); assay type: functional
[10] = biological target: T1, Cystic fibrosis transmembrane conductance regulator/Golgi-associated PDZ and coiled-coil motif-containing protein; assay: CAL PDZ domain peptide-binding inhibitors, dose response, biochemical, fluorescence polarization, Cer-tagged CAL PDZ, dry powder (AID 602253); assay type: functional
[11] = BHK-21 cell cytotoxicity, cytotoxicity control for flavivirus guanylyltransferase probe project, secondary screen (AID 624078); assay type: functional
[12] = A549 cell cytotoxicity, dose response, cytotoxicity control, plate reader, cherry-pick, antagonist series (AID 743412); assay type: functional, cell-based
[13] = HepG2 cell cytotoxicity, dose response, cytotoxicity control, plate reader, cherry-pick, antagonist series (AID 743416); assay type: functional, cell-based
[14] = biological target: T3, Tyrosyl-DNA phosphodiesterase 2 (Homo sapiens, UniProt O95551); assay: human TDP2 enzyme inhibitors, dose response, biochemical, epi absorbance, IC50 (AID 743297)
T3 sequence (O95551 whole entry): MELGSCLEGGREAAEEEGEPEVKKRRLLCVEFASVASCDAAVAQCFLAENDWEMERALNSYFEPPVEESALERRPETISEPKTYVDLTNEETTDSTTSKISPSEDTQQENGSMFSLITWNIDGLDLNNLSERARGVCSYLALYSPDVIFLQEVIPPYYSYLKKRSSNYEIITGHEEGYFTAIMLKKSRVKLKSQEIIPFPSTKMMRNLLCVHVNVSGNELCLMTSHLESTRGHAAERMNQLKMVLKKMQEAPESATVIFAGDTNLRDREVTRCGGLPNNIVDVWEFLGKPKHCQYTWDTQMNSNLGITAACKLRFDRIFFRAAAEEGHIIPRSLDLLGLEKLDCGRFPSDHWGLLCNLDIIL

[15] = MC4R antagonists, dose response, counter-screen for LGR2 antagonist project, cell-based, plate reader, cherry pick (AID 743444); assay type: functional;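 also: transfected HEK 293 cells stimulated with alpha-MSH peptide; potency of inhibitors of the alpha-MSH evoked signal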
[16] = HEK293 cell cytotoxicity, dose response, cytotoxicity control, plate reader, cherry-picked samples (AID 743446); assay type: functional, cell-based

Structure (SMILES) | AC50 (HEK293) | AC50 [1] | IC50 [2] | IC50 [3] | IC50 [4] | IC50 [5] | AC50 [6] | IC50 (Hexokinase HKDC1) | CC50 (Vero) | IC50 (Genome polyprotein) | IC50 [7] | IC50 [8] | AC50 [9] | AC50 [10] | CC50 [11] | AC50 [12] | AC50 [13] | IC50 [14] | AC50 [15] | AC50 [16]
COc1cccc(CNc2ncnc3ccc(-c4c(C)noc4C)cc23)c1 | 10.3 µM (active) | 14.1 µM (active) |  |  |  |  |  |  |  |  |  |  |  |  |  |  |  |  |  | 
O=C(O)CSc1cc(NS(=O)(=O)c2cccc([N+](=O)[O-])c2)c2ccccc2c1O |  |  | 17.4 µM (not active) | > 50 µM (not active) | 13.6 µM (active) | 12.2 µM (active) | 21.7 µM (active) | 5.62 µM (active) | 26.5 µM (active) | 5.4 µM (active) | > 66 µM (inactive) | 35.5 µM (inactive) | 52 µM (active) | 44.7 µM (active) | 7.45 µM (active) | 17.6 µM (active) | 12.1 µM (active) | 12.9 µM (inactive) | 42.7 µM (active) | 21.2 µM (active)
